This experiment deals with L1210 leukemia ip in BDF1 mice, survival T/C. Put plainly: NCI In Vivo Anticancer Drug Screen. Data for tumor model L1210 Leukemia (intraperitoneal) in B6D2F1 (BDF1) mice. To be noted: endpoint: mean survival time, higher = longer survival. The method, boiled down: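 Ratio derived from survival: compound-dosed mice over vehicle-dosed mice, all bearing a transplantable tumor.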

Setting [1] is: dose: 50.0 mg/kg/injection, schedule: Q01DX009 (ip), vehicle: saline.
The mark [2] stands for this setting: dose: 100.0 mg/kg/injection, schedule: Q01DX009 (ip), vehicle: saline.
Setting [3] is: dose: 100.0 mg/kg/injection, schedule: Q01DX001 (ip), vehicle: saline with Tween-80.
Where [4] appears, read: dose: 100.0 mg/kg/injection, schedule: Q01DX009 (ip), vehicle: saline with Tween-80.
[5] abbreviates: dose: 100.0 mg/kg/injection, schedule: Q04DX002 (ip), vehicle: saline with Tween-80.
The mark [6] stands for this setting: dose: 200.0 mg/kg/injection, schedule: Q01DX001 (ip), vehicle: saline with Tween-80.
Setting [7] is: dose: 200.0 mg/kg/injection, schedule: Q01DX009 (ip), vehicle: saline with Tween-80.
Setting [8] is: dose: 200.0 mg/kg/injection, schedule: Q04DX002 (ip), vehicle: saline with Tween-80.
Where [9] appears, read: dose: 400.0 mg/kg/injection, schedule: Q01DX001 (ip), vehicle: saline with Tween-80.
Setting [10] is: dose: 400.0 mg/kg/injection, schedule: Q01DX009 (ip), vehicle: saline with Tween-80.
Where [11] appears, read: dose: 400.0 mg/kg/injection, schedule: Q04DX002 (ip), vehicle: saline with Tween-80.
Where [12] appears, read: dose: 100.0 mg/kg/injection, schedule: Q01DX009 (ip), vehicle: Klucel (hydroxypropylcellulose) (HPC).
The mark [13] stands for this setting: dose: 100.0 mg/kg/injection, schedule: Q04DX002 (ip), vehicle: Klucel (hydroxypropylcellulose) (HPC).
Setting [14] is: dose: 200.0 mg/kg/injection, schedule: Q01DX009 (ip), vehicle: Klucel (hydroxypropylcellulose) (HPC).
The mark [15] stands for this setting: dose: 200.0 mg/kg/injection, schedule: Q04DX002 (ip), vehicle: Klucel (hydroxypropylcellulose) (HPC).
[16] abbreviates: dose: 100.0 mg/kg/injection, schedule: Q01DX001 (ip), vehicle: carboxymethylcellulose (CMC).
Setting [17] is: dose: 200.0 mg/kg/injection, schedule: Q01DX001 (ip), vehicle: carboxymethylcellulose (CMC).
[18] abbreviates: dose: 400.0 mg/kg/injection, schedule: Q01DX001 (ip), vehicle: carboxymethylcellulose (CMC).
Setting [19] is: dose: 400.0 mg/kg/injection, schedule: Q01DX009 (ip), vehicle: Klucel (hydroxypropylcellulose) (HPC).
Setting [20] is: dose: 25.0 mg/kg/injection, schedule: Q01DX009 (ip), vehicle: saline.

The values below come from PubChem BioAssay AID248 (DTP/NCI, 2004).

Values joined by “and” are separate entries in the source; they are usually repeats but may differ in a detail not shown here. Identical values can stand only once. Inconclusive results and toxic doses are left out.

`CC1=C(CC/C(C)=C/CCC(=O)O)C(C)(C)CCC1`: the T/C under setting [1] is 100 % of control; the T/C under setting [2] was 100 % of control; the T/C (dose: 100.0 mg/kg/injection, schedule: Q04DX003 (ip), vehicle: saline) was 116 % of control; the T/C (dose: 200.0 mg/kg/injection, schedule: Q01DX009 (ip), vehicle: saline) is 98 % of control; the T/C (dose: 200.0 mg/kg/injection, schedule: Q04DX003 (ip), vehicle: saline) is 100 % of control; the T/C (dose: 400.0 mg/kg/injection, schedule: Q04DX003 (ip), vehicle: saline) is 111 % of control.
In the case of `COc1ccc(NC(=O)Nc2cccc(Cl)c2C)c(OC)c1`, the T/C runs as follows: under setting [3], 98 % of control; under setting [4], 93 % of control and 89 % of control; under setting [5], 93 % of control and 92 % of control; (dose: 100.0 mg/kg/injection, schedule: Q04DX003 (ip), vehicle: saline with Tween-80) 86 % of control; under setting [6], 102 % of control; under setting [7], 94 % of control and 86 % of control. The T/C is, setting by setting: under setting [8], 104 % of control and 90 % of control; (dose: 200.0 mg/kg/injection, schedule: Q04DX003 (ip), vehicle: saline with Tween-80) 86 % of control; under setting [9], 100 % of control; under setting [10], 97 % of control and 110 % of control; under setting [11], 90 % of control; (dose: 400.0 mg/kg/injection, schedule: Q04DX003 (ip), vehicle: saline with Tween-80) 91 % of control.
For the compound `CC(=O)CC(=O)NCC(CCN1CCCCC1)(c1cccc2ccccc12)C(C)C` (stereo unspecified), the T/C by setting is: (dose: 25.0 mg/kg/injection, schedule: Q01DX009 (ip), vehicle: Klucel (hydroxypropylcellulose) (HPC)) 106 % of control; (dose: 50.0 mg/kg/injection, schedule: Q01DX009 (ip), vehicle: Klucel (hydroxypropylcellulose) (HPC)) 95 % of control.
Consider `Cc1cc[n+]([O-])cc1C`, for which the T/C runs as follows: under setting [12], 101 % of control; under setting [13], 98 % of control; under setting [14], 96 % of control; under setting [15], 101 % of control.
For the compound `Cc1cc(Cl)sc1Cl`, the T/C under setting [16] is 98 % of control, the T/C under setting [17] was 93 % of control and the T/C under setting [18] is 92 % of control.
Consider `COC1OC(CCl)C(OC(C)=O)C(OC(C)=O)C1OC(C)=O` (stereo unspecified), for which the T/C is, setting by setting: under setting [13], 96 % of control and 106 % of control; under setting [15], 104 % of control and 106 % of control; (dose: 400.0 mg/kg/injection, schedule: Q04DX002 (ip), vehicle: Klucel (hydroxypropylcellulose) (HPC)) 101 % of control and 103 % of control.
Consider `CCCCCCCCCCCCCCCCCC(=O)N/N=C/c1ccc(OCC)c(OC)c1`, for which the T/C is, setting by setting: under setting [12], 86 % of control; under setting [14], 91 % of control; under setting [19], 88 % of control.
`CC12CC3CC(C)(C1)CC(OCCN)(C3)C2`: the T/C was 94 % of control under setting [20]; 98 % of control (dose: 25.0 mg/kg/injection, schedule: Q04DX002 (ip), vehicle: saline); 108 % of control under setting [1]; 98 % of control (dose: 50.0 mg/kg/injection, schedule: Q04DX002 (ip), vehicle: saline); 92 % of control under setting [2]; 110 % of control and 117 % of control (dose: 100.0 mg/kg/injection, schedule: Q04DX002 (ip), vehicle: saline).
As for `C#CC(O)C1OC2OC(C)(C)OC2C1O` (stereo unspecified), the T/C was 173 % of control under setting [12]; 101 % of control (dose: 100.0 mg/kg/injection, schedule: Q04DX003 (ip), vehicle: Klucel (hydroxypropylcellulose) (HPC)); 97 % of control under setting [14]; 101 % of control (dose: 200.0 mg/kg/injection, schedule: Q04DX003 (ip), vehicle: Klucel (hydroxypropylcellulose) (HPC)); 96 % of control under setting [19]; 113 % of control (dose: 400.0 mg/kg/injection, schedule: Q04DX003 (ip), vehicle: Klucel (hydroxypropylcellulose) (HPC)).
On to `CC(=O)c1c(O)cc(O)cc1O`, for which the T/C is, setting by setting: under setting [4], 96 % of control; under setting [7], 91 % of control; under setting [10], 98 % of control.
For `[CH3][Hg][O]C(C)=O`, the T/C is, setting by setting: (dose: 3.0 mg/kg/injection, schedule: Q01DX009 (ip), vehicle: Klucel (hydroxypropylcellulose) (HPC)) 86 % of control; (dose: 3.12 mg/kg/injection, schedule: Q04DX003 (ip), vehicle: Klucel (hydroxypropylcellulose) (HPC)) 104 % of control; (dose: 6.0 mg/kg/injection, schedule: Q01DX009 (ip), vehicle: Klucel (hydroxypropylcellulose) (HPC)) 91 % of control; (dose: 6.25 mg/kg/injection, schedule: Q04DX003 (ip), vehicle: Klucel (hydroxypropylcellulose) (HPC)) 96 % of control; (dose: 12.5 mg/kg/injection, schedule: Q04DX003 (ip), vehicle: Klucel (hydroxypropylcellulose) (HPC)) 96 % of control and 97 % of control.
As to `C=C(Br)CNS(C)(=O)=O`, the T/C (dose: 6.25 mg/kg/injection, schedule: Q01DX009 (ip), vehicle: saline) is 106 % of control; the T/C (dose: 12.5 mg/kg/injection, schedule: Q01DX009 (ip), vehicle: saline) was 95 % of control; the T/C (dose: 12.5 mg/kg/injection, schedule: Q04DX003 (ip), vehicle: saline) was 98 % of control; the T/C under setting [20] is 96 % of control; the T/C (dose: 25.0 mg/kg/injection, schedule: Q04DX003 (ip), vehicle: saline) was 104 % of control.
Consider `CCc1ccc2ccc3c4ccccc4ccc3[n+]2c1`, for which the T/C reads like this: (dose: 10.0 mg/kg/injection, schedule: Q01DX001 (ip), vehicle: saline) 93 % of control; (dose: 20.0 mg/kg/injection, schedule: Q01DX001 (ip), vehicle: saline) 90 % of control; (dose: 40.0 mg/kg/injection, schedule: Q01DX001 (ip), vehicle: saline) 94 % of control.
For the compound `COc1ccc2c(c1O)C13CCN(C)C(C2)C12C=CC(=O)C3c1c(O)ccc(O)c12` (stereo unspecified), the T/C reads like this: under setting [16], 92 % of control; under setting [17], 97 % of control; under setting [18], 95 % of control.
As for `O=C(NNC(=O)OCCCl)OCCCl`, the T/C is, setting by setting: (dose: 111.0 mg/kg/injection, schedule: Q01DX Z (ip), vehicle: methylcellulose (MC)) 107 % of control; (dose: 166.0 mg/kg/injection, schedule: Q01DX Z (ip), vehicle: methylcellulose (MC)) 92 % of control; (dose: 250.0 mg/kg/injection, schedule: Q01DX Z (ip), vehicle: methylcellulose (MC)) 107 % of control.
On to `Cc1csc(=S)n1-c1ccc(Cl)cc1`, for which the T/C is, setting by setting: under setting [3], 107 % of control; under setting [6], 100 % of control; under setting [9], 98 % of control.
As to `COc1cc(N(CCCl)CCCl)c(OC)cc1C=Nc1ccc(-c2csc(Cc3ccccc3)n2)c(Cl)c1`, the T/C was 115 % of control (dose: 12.5 mg/kg/injection, schedule: Q01DX001 (ip), vehicle: carboxymethylcellulose (CMC)); 105 % of control (dose: 25.0 mg/kg/injection, schedule: Q01DX001 (ip), vehicle: carboxymethylcellulose (CMC)); 108 % of control (dose: 50.0 mg/kg/injection, schedule: Q01DX001 (ip), vehicle: carboxymethylcellulose (CMC)); 115 % of control (dose: 88.0 mg/kg/injection, schedule: Q01DX001 (ip), vehicle: carboxymethylcellulose (CMC)); 110 % of control (dose: 88.0 mg/kg/injection, schedule: Q01DX009 (ip), vehicle: carboxymethylcellulose (CMC)); 94 % of control (dose: 133.0 mg/kg/injection, schedule: Q01DX009 (ip), vehicle: carboxymethylcellulose (CMC)). Also, the T/C runs as follows: (dose: 150.0 mg/kg/injection, schedule: Q01DX001 (ip), vehicle: carboxymethylcellulose (CMC)) 153 % of control; (dose: 300.0 mg/kg/injection, schedule: Q01DX001 (ip), vehicle: carboxymethylcellulose (CMC)) 176 % of control and 182 % of control.
For `N#CC[CH2][Sn]([CH2]CC#N)([CH2]CC#N)[CH2]CC#N`, the T/C reads like this: under setting [5], 100 % of control; under setting [8], 96 % of control; under setting [11], 96 % of control.
